# Reference: patent US20250177555A1 (priority 2022, published 2025)
# Tested on: 293T cells
# Assay type: cell-based
smiles,measurement,value
"C=C(C)[C@@H]1CCC(C)=C[C@H]1c1c(O)cc(CCCCC)cc1O [CBD, cannabidiol]",production of gectosomes encapsulated Nluc cargo,induces an elevated production
